In article PMC10006169, “A phase I trial of LXS196, a protein kinase C (PKC) inhibitor, for metastatic uveal melanoma” (British Journal of Cancer, 2023):
Where two headings read alike, the source gives them in different places.

Experiment: Plasma pharmacokinetics (LC-MS/MS)
Type: in vivo, human
Details: human, plasma; for concentration at 15 day: read-out: Cmin, Median (Min, max)
Method: In the dose escalation part of the study, PK samples were collected at various pre- and post-dose time points on C1D1, D2, D3, D15 and D16. Drug concentrations were assessed using a validated liquid chromatography-tandem mass spectrometry assay.

SMILES: CC1(N)CCN(c2cccnc2NC(=O)c2nc(-c3ncccc3C(F)(F)F)cnc2N)CC1 [LXS196]
- AUC(0-t) (oral, 500 mg, C1D1, 500 mg QD, n=10, read-out: AUC0-t, Median (Min, max)): 50700 ng·h/mL
- AUC(0-inf) (oral, 500 mg, C1D1, 500 mg QD, n=10, read-out: AUCinf, Geo-mean): 59500 ng·h/mL
- AUC(0-inf) (oral, 500 mg, C1D1, 500 mg QD, n=10, read-out: AUCinf, Mean (SD)): 63400 ng·h/mL
- AUC(0-inf) (oral, 500 mg, C1D1, 500 mg QD, n=10, read-out: AUCinf, Median (Min, max)): 61700 ng·h/mL
- Cmax (oral, 500 mg, C1D1, 500 mg QD, n=10, read-out: Cmax, Geo-mean): 4670 ng/mL
- Cmax (oral, 500 mg, C1D1, 500 mg QD, n=10, read-out: Cmax, Mean (SD)): 4970 ng/mL
- Cmax (oral, 500 mg, C1D1, 500 mg QD, n=10, read-out: Cmax, Median (Min, max)): 4380 ng/mL
- half-life (oral, 500 mg, C1D1, 500 mg QD, n=10, read-out: T1/2, Geo-mean (converted)): 10.1 h
- half-life (oral, 500 mg, C1D1, 500 mg QD, n=10, read-out: T1/2, Mean (SD) (converted)): 10.2 h
- half-life (oral, 500 mg, C1D1, 500 mg QD, n=10, read-out: T1/2, Median (Min, max) (converted)): 10.1 h
- Tmax (oral, 500 mg, C1D1, 500 mg QD, n=10, read-out: Tmax, Median (Min, max)): 1.03 h
- AUC(0-t) (oral, 500 mg, C1D15, 500 mg QD, n=9, read-out: AUC0-t, Geo-mean): 43100 ng·h/mL
- AUC(0-t) (oral, 500 mg, C1D15, 500 mg QD, n=9, read-out: AUC0-t, Mean (SD)): 45700 ng·h/mL
- AUC(0-t) (oral, 500 mg, C1D15, 500 mg QD, n=9, read-out: AUC0-t, Median (Min, max)): 41700 ng·h/mL
- Cmax (oral, 500 mg, C1D15, 500 mg QD, n=9, read-out: Cmax, Geo-mean): 3870 ng/mL
- Cmax (oral, 500 mg, C1D15, 500 mg QD, n=9, read-out: Cmax, Mean (SD)): 4170 ng/mL
- Cmax (oral, 500 mg, C1D15, 500 mg QD, n=9, read-out: Cmax, Median (Min, max)): 3700 ng/mL
- concentration at 15 day (oral, 500 mg, C1D15, 500 mg QD, n=9): 643 ng/mL
- Tmax (oral, 500 mg, C1D15, 500 mg QD, n=9, read-out: Tmax, Median (Min, max)): 1.07 h
- AUC(0-t) (oral, 800 mg, C1D1, 800 mg QD, n=1, read-out: AUC0-t, Geo-mean): 54300 ng·h/mL
- AUC(0-t) (oral, 800 mg, C1D1, 800 mg QD, n=1, read-out: AUC0-t, Mean (SD)): 54300 ng·h/mL
- AUC(0-t) (oral, 800 mg, C1D1, 800 mg QD, n=1, read-out: AUC0-t, Median (Min, max)): 54300 ng·h/mL
- AUC(0-inf) (oral, 800 mg, C1D1, 800 mg QD, n=1, read-out: AUCinf, Geo-mean): 66200 ng·h/mL
- AUC(0-inf) (oral, 800 mg, C1D1, 800 mg QD, n=1, read-out: AUCinf, Mean (SD)): 66200 ng·h/mL
- AUC(0-inf) (oral, 800 mg, C1D1, 800 mg QD, n=1, read-out: AUCinf, Median (Min, max)): 66200 ng·h/mL
- Cmax (oral, 800 mg, C1D1, 800 mg QD, n=1, read-out: Cmax, Geo-mean): 6080 ng/mL
- Cmax (oral, 800 mg, C1D1, 800 mg QD, n=1, read-out: Cmax, Mean (SD)): 6080 ng/mL
- Cmax (oral, 800 mg, C1D1, 800 mg QD, n=1, read-out: Cmax, Median (Min, max)): 6080 ng/mL
- half-life (oral, 800 mg, C1D1, 800 mg QD, n=1, read-out: T1/2, Geo-mean (converted)): 8.85 h
- half-life (oral, 800 mg, C1D1, 800 mg QD, n=1, read-out: T1/2, Mean (SD) (converted)): 8.85 h
- half-life (oral, 800 mg, C1D1, 800 mg QD, n=1, read-out: T1/2, Median (Min, max) (converted)): 8.85 h
- Tmax (oral, 800 mg, C1D1, 800 mg QD, n=1, read-out: Tmax, Median (Min, max)): 0.483 h
- AUC(0-inf) (oral, 1000 mg, C1D1, 1000 mg QD, n=3, read-out: AUCinf, Geo-mean): 75700 ng·h/mL
- AUC(0-inf) (oral, 1000 mg, C1D1, 1000 mg QD, n=3, read-out: AUCinf, Mean (SD)): 78000 ng·h/mL
- AUC(0-inf) (oral, 1000 mg, C1D1, 1000 mg QD, n=3, read-out: AUCinf, Median (Min, max)): 66000 ng·h/mL
- half-life (oral, 1000 mg, C1D1, 1000 mg QD, n=3, read-out: T1/2, Geo-mean (converted)): 9.94 h
- half-life (oral, 1000 mg, C1D1, 1000 mg QD, n=3, read-out: T1/2, Mean (SD) (converted)): 10 h
- half-life (oral, 1000 mg, C1D1, 1000 mg QD, n=3, read-out: T1/2, Median (Min, max) (converted)): 9.32 h
- AUC(0-t) (oral, 1000 mg, C1D1, 1000 mg QD, n=4, read-out: AUC0-t, Geo-mean): 69700 ng·h/mL
- AUC(0-t) (oral, 1000 mg, C1D1, 1000 mg QD, n=4, read-out: AUC0-t, Mean (SD)): 74300 ng·h/mL
- AUC(0-t) (oral, 1000 mg, C1D1, 1000 mg QD, n=4, read-out: AUC0-t, Median (Min, max)): 70100 ng·h/mL
- Cmax (oral, 1000 mg, C1D1, 1000 mg QD, n=4, read-out: Cmax, Geo-mean): 5080 ng/mL
- Cmax (oral, 1000 mg, C1D1, 1000 mg QD, n=4, read-out: Cmax, Mean (SD)): 5410 ng/mL
- Cmax (oral, 1000 mg, C1D1, 1000 mg QD, n=4, read-out: Cmax, Median (Min, max)): 5230 ng/mL
- Tmax (oral, 1000 mg, C1D1, 1000 mg QD, n=4, read-out: Tmax, Median (Min, max)): 2 h
- AUC(0-t) (oral, 1000 mg, C1D15, 1000 mg QD, n=2, read-out: AUC0-t, Geo-mean): 48000 ng·h/mL
- AUC(0-t) (oral, 1000 mg, C1D15, 1000 mg QD, n=2, read-out: AUC0-t, Mean (SD)): 48300 ng·h/mL
- AUC(0-t) (oral, 1000 mg, C1D15, 1000 mg QD, n=2, read-out: AUC0-t, Median (Min, max)): 48300 ng·h/mL
- Cmax (oral, 1000 mg, C1D15, 1000 mg QD, n=2, read-out: Cmax, Geo-mean): 4870 ng/mL
- Cmax (oral, 1000 mg, C1D15, 1000 mg QD, n=2, read-out: Cmax, Mean (SD)): 5110 ng/mL
- Cmax (oral, 1000 mg, C1D15, 1000 mg QD, n=2, read-out: Cmax, Median (Min, max)): 5110 ng/mL
- concentration at 15 day (oral, 1000 mg, C1D15, 1000 mg QD, n=2): 674 ng/mL
- Tmax (oral, 1000 mg, C1D15, 1000 mg QD, n=2, read-out: Tmax, Median (Min, max)): 0.792 h
- half-life (oral, across different doses, read-out: Terminal T1/2 (converted)): ~11 h
- Tmax (oral, fasting, 100–1000 mg QD and 200–400 mg BID, read-out: Tmax): ~1 h
- Tmax (po, D1 and D15, read-out: Median Tmax, range across dose groups): 0.483 to 2 h
- half-life (po, read-out: Mean terminal half-life (T1/2), range across dose groups): 8.49 to 13.8 h
